We go through ten molecules from ChEMBL document CHEMBL4304799, “Primaquine homodimers as potential antiplasmodial and anticancer agents” (Bioorg Med Chem Lett, 2019).

The source made the active and inactive calls. The calls are words filed in the database; no cut-off is given here. A value given as a limit tells only on which side of the number the result lay.

One series deals with MCF7. Nature of the series: Antiproliferative activity against human MCF7 cells measured after 72 hrs by MTT assay. It counts as functional, cell-based. As to conditions: MCF7, 72 h.
A further series concerns HCT-116. Description: Antiproliferative activity against human HCT116 cells measured after 72 hrs by MTT assay. It counts as functional, cell-based. To be noted: HCT-116, 72 h.
The test system of another series is NCI-H460. Description: Antiproliferative activity against human H460 cells measured after 72 hrs by MTT assay. Type of series: functional, cell-based. As to conditions: NCI-H460, 72 h. A general note: Tetrazolium assays rely on reduction of a dye to a coloured formazan, in cell work by metabolically active cells.
For a further series, the system named is HEK293. Nature of the series: Antiproliferative activity against human HEK293 cells measured after 72 hrs by MTT assay. Type of series: cell-based. As to conditions: HEK293, 72 h.
For series [1], the system named is Plasmodium berghei. Description: Antiplasmodial activity against liver stage luciferase expressing Plasmodium berghei sporozoites infected in human Huh7 cells preincubated with host cells for 1 hr followed by plasmodium infection at 1 and 10 uM. Type of series: functional, organism-based.
Series [2] concerns Plasmodium falciparum. Nature of the series: Antiplasmodial activity against asexual chloroquine sensitive blood stage Plasmodium falciparum 3D7 measured as HRP2 levels after 3 days by ELISA. It counts as functional, organism-based. To be noted: 3D7, 72 h. A general note: An ELISA detects its analyte on a solid surface through an enzyme-linked reagent.
The test system of series [3] is Plasmodium falciparum. Description: Antiplasmodial activity against asexual chloroquine resistant blood stage Plasmodium falciparum Dd2 measured as HRP2 levels after 3 days by ELISA. Type of series: functional, organism-based. To be noted: Dd2, 72 h.
Series [4] has as its system Plasmodium berghei. Description: Antiplasmodial activity against liver stage luciferase expressing Plasmodium berghei sporozoites infected in human Huh7 cells preincubated with host cells for 1 hr followed by plasmodium infection. As to conditions: Huh-7. Type of series: functional, organism-based.
Series [5] can be described thus: Selectivity index, ratio of IC50 for HEK293 cells to IC50 for human MCF7 cells. It counts as toxicity. As to conditions: HEK293 cells versus MCF7 cells, read-out: Ratio IC50.
Series [6] is described as follows: Selectivity index, ratio of IC50 for HEK293 cells to IC50 for human HCT116 cells. As to conditions: HEK293 cells versus HCT116 cells, read-out: Ratio IC50. It counts as toxicity.
Series [7] is described as follows: Selectivity index, ratio of IC50 for HEK293 cells to IC50 for human H460 cells. It counts as toxicity. To be noted: HEK293 cells versus H460 cells, read-out: Ratio IC50.

As for `COc1cc(NC(C)CCCNC(=O)/C=C(\C)C(=O)NCCCC(C)Nc2cc(OC)cc3cccnc23)c2ncccc2c1` (centres undefined), the IC50 (in general, the point on the concentration scale where inhibition reaches its midpoint) with MCF7 amounted to 2.36 µM; in the series with HCT-116 it was 4.31 µM; in the series on NCI-H460, 1.63 µM; in the series on HEK293 it was 10 µM.

Consider `COc1cc(NC(C)CCCNC(=O)CCC(=O)NCCCC(C)Nc2cc(OC)cc3cccnc23)c2ncccc2c1` (centres undefined), for which, in the series on Plasmodium berghei [1], the result was Active. The IC50 is 17.2 µM in the series with Plasmodium falciparum [2]; more than 27.7 µM in the series with Plasmodium falciparum [3]; 2.82 µM with MCF7; 11.3 µM in the series with HCT-116; 18.5 µM in the series on NCI-H460; 2.25 µM in the series on HEK293. Besides, the IC50 in the series on Plasmodium berghei [4] came out at 0.726 µM.

For `COc1cc(NC(C)CCCNC(=O)CCCCCCC(=O)NCCCC(C)Nc2cc(OC)cc3cccnc23)c2ncccc2c1` (centres undefined), the result in the series on Plasmodium berghei [1] was Active. Moreover, the IC50 with Plasmodium falciparum [2] is 23.1 µM; in the series with Plasmodium falciparum [3], 12.7 µM; in the series with MCF7 it was 1.85 µM; with HCT-116 it was not below 100 µM; in the series with NCI-H460 it was not below 100 µM; with HEK293, not below 100 µM.

In the case of `COc1cccc2c1C(=O)c1c(O)c3c(c(O)c1C2=O)C[C@@](O)(C(=O)CO)C[C@@H]3O[C@H]1C[C@H](N)[C@H](O)[C@H](C)O1` [DOXORUBICIN], the IC50 with MCF7 turned out to be 0.01 µM; with HCT-116 it was 0.01 µM; in the series with NCI-H460 it was 0.003 µM; with HEK293, 0.018 µM.

For `COc1cc(NC(C)CCCNC(=O)CCCC(=O)NCCCC(C)Nc2cc(OC)cc3cccnc23)c2ncccc2c1` (centres undefined), in the series with Plasmodium berghei [1], the outcome was Active. For the same molecule, the IC50 was 16.5 µM with Plasmodium falciparum [2]; more than 27.7 µM in the series with Plasmodium falciparum [3]; 3.37 µM in the series with MCF7; 16.9 µM in the series on HCT-116; 10.3 µM in the series with NCI-H460; 26.4 µM in the series on HEK293. Besides, the selectivity ratio in series [5], in series [6] and in series [7] was 1.6 to 31 in each case.

Turning to `COc1cc(NC(C)CCCN)c2ncccc2c1` (centres undefined) [PRIMAQUINE PHOSPHATE], the result in the series with Plasmodium berghei [1] was Active. In addition, the IC50 with Plasmodium falciparum [2] was determined as 1.3 µM; in the series with Plasmodium falciparum [3], 1.9 µM; with MCF7, 8.73 µM; with HCT-116, 14 µM; with NCI-H460 it was 19.8 µM; with HEK293 it was 11 µM.

On to `COc1cc(NC(C)CCCNC(=O)CCCCC(=O)NCCCC(C)Nc2cc(OC)cc3cccnc23)c2ncccc2c1` (centres undefined), for which the outcome with Plasmodium berghei [1] was Active. Moreover, the IC50 in the series on Plasmodium falciparum [2] was more than 27.7 µM; in the series on Plasmodium falciparum [3], more than 27.7 µM; in the series with MCF7, 1.78 µM; with HCT-116, 13.7 µM; in the series with NCI-H460 it was 2.49 µM; in the series with HEK293, not below 100 µM. Moreover, the selectivity ratio in series [5], in series [6] and in [7] was 7.3 to 56 in each case.

For `COc1cc(NC(C)CCCNC(=O)/C=C\C(=O)NCCCC(C)Nc2cc(OC)cc3cccnc23)c2ncccc2c1` (centres undefined), in the series with Plasmodium berghei [1], the outcome was Active. For the same molecule, the IC50 in the series on MCF7 amounted to 3.14 µM; with HCT-116 it was 9.19 µM; in the series with NCI-H460, 14.1 µM; in the series with HEK293, 17.5 µM; in the series on Plasmodium berghei [4] it was 0.358 µM. In addition, the selectivity ratio in [5], in series [6] and in [7] was 1.6 to 31 each time.

Consider `COc1cc(NC(C)CCCNC(=O)CCCCCC(=O)NCCCC(C)Nc2cc(OC)cc3cccnc23)c2ncccc2c1` (centres undefined), for which the IC50 amounted to 3.04 µM with MCF7, 26.1 µM in the series on HCT-116, 26.7 µM with NCI-H460 and 94.9 µM with HEK293. The selectivity ratio in series [5], in series [6] and in [7] was 1.6 to 31 in each case.

On to `COc1cc(NC(C)CCCNC(=O)/C=C/C(=O)NCCCC(C)Nc2cc(OC)cc3cccnc23)c2ncccc2c1` (centres undefined), for which the result in the series with Plasmodium berghei [1] was Active. For the same molecule, the IC50 in the series with Plasmodium falciparum [2] was 14.6 µM; in the series on Plasmodium falciparum [3], more than 27.7 µM; in the series on MCF7, 9.3 µM; in the series on HCT-116 it was not below 100 µM; in the series on NCI-H460, not below 100 µM; in the series on HEK293, not below 100 µM. In the series with Plasmodium berghei [4], this molecule displayed an IC50 of 0.198 µM.
